Results: patent publication US20230203081A1, “LINCOSAMIDE ANTIBIOTICS AND USES THEREOF” (President and Fellows of Harvard College, priority 2020, published 2023)
Converted amounts (≈) assume the structure as drawn.

Assays:
Format in all cases: cell-based
S. aureus cErmA = experiment: MIC (broth microdilution or agar dilution, CLSI); conditions: Staphylococcus aureus; S. aureus cErmA; read-out: MIC
Method: (§1) Minimum inhibitory concentrations (MICs) were determined by broth microdilution method or agar dilution method following the Clinical and Laboratory Standards Institute guidelines. Standard bacterial strains were obtained from American Type Culture Collection (ATCC). Other bacterial strains were obtained from hospitals and commercial sources, so noted in Table 11. Before the start of the MIC experiment, standard and test compound stock solutions were prepared in dimethyl sulfoxide (DMSO, Aldrich D2650) at a stock concentration of 5,120 μg/mL. The compound concentration range typically employed for each experiment was 128-0.06 μg/mL (2.5% final DMSO concentration). Clindamycin was used as a comparator in all experiments and each experiment was performed in triplicate. Specialized procedures were employed for streptococcal and anaerobic strains. All other bacterial strains were sub-cultured on blood agar plates (tryptic soy agar with 5% sheep blood, Hardy Diagnostics) and incubated overnight at 35° C. Organisms were suspended in cation-adjusted Mueller-Hinton broth (CaMHB, BD 212322) and optical density was adjusted to 0.5 McFarland standard. Suspensions were further diluted to obtain a final inoculum of 5×10^5 CFU/mL for broth microdilution experiments.

E. faecium Clinical VRE = experiment: MIC (broth microdilution or agar dilution, CLSI); conditions: Enterococcus faecium; E. faecium Clinical VRE; read-out: MIC
Method: as §1

E. coli ATCC 25922 = experiment: MIC (broth microdilution or agar dilution, CLSI); conditions: Escherichia coli, ATCC25922; E. coli ATCC 25922; read-out: MIC
Method: (§2) Minimum inhibitory concentrations (MICs) were determined by broth microdilution method or agar dilution method following the Clinical and Laboratory Standards Institute guidelines. Standard bacterial strains were obtained from American Type Culture Collection (ATCC). Other bacterial strains were obtained from hospitals and commercial sources, so noted in Table 11. […] Specialized procedures were employed for streptococcal and anaerobic strains. All other bacterial strains were sub-cultured on blood agar plates (tryptic soy agar with 5% sheep blood, Hardy Diagnostics) and incubated overnight at 35° C. […] Suspensions were further diluted to obtain a final inoculum of 5×10^5 CFU/mL for broth microdilution experiments.

K. oxytoca Clinical = experiment: MIC (broth microdilution or agar dilution, CLSI); conditions: Klebsiella oxytoca; K. oxytoca Clinical; read-out: MIC
Method: as §2

S. pneumoniae ATCC 49619 = experiment: MIC (broth microdilution or agar dilution, CLSI); conditions: Streptococcus pneumoniae, ATCC49619, S. pneumoniae ATCC 49619; read-out: MIC
Method: as §2

S. pyogenes ATCC 19615 = experiment: MIC (broth microdilution or agar dilution, CLSI); conditions: Streptococcus pyogenes, ATCC19615, S. pyogenes ATCC 19615; read-out: MIC
Method: as §2

E. faecalis ATCC 29212 = experiment: MIC (broth microdilution or agar dilution, CLSI); conditions: Enterococcus faecalis, ATCC29212, E. faecalis ATCC 29212; read-out: MIC
Method: as §2

E. coli LptD = experiment: MIC (broth microdilution or agar dilution, CLSI); conditions: Escherichia coli, E. coli LptD; read-out: MIC
Method: as §2

S. aureus ATCC 29213 = experiment: MIC (broth microdilution or agar dilution, CLSI); conditions: Staphylococcus aureus, ATCC29213, S. aureus ATCC 29213; read-out: MIC
Method: as §2

E. coli ΔTolC = experiment: microbe, parasite or virus in culture; conditions: Escherichia coli, E. coli ΔTolC
Method: as §2

[1] = tested on: broad panel of different clinical isolates; experiment: microbe, parasite or virus in culture; conditions: Staphylococcus aureus, norA
Method: as §2

| SMILES | MIC (S. aureus cErmA) [µg/mL] | MIC (E. faecium Clinical VRE) [µg/mL] | MIC (E. coli ATCC 25922) [µg/mL] | MIC (K. oxytoca Clinical) [µg/mL] | MIC (S. pneumoniae ATCC 49619) [µg/mL] | MIC (S. pyogenes ATCC 19615) [µg/mL] | MIC (E. faecalis ATCC 29212) [µg/mL] | MIC (E. coli LptD) [µg/mL] | MIC (S. aureus ATCC 29213) [µg/mL] | MIC (E. coli ΔTolC) [µg/mL] | MIC ([1]; S. aureus HAV#051, mecA, spcl, ermA, aad1, aac6′-aph2″) [µg/mL] | MIC ([1]; S. aureus HAV#052, mecA, fosB, blaZ) [µg/mL] | MIC ([1]; S. aureus HAV#053 mecA, fosB) [µg/mL] | MIC ([1]; S. aureus HAV#054, mecA, spcl, aad1, fosB, ermA, aac6′-aph2″, blaZ) [µg/mL] |
| --- | --- | --- | --- | --- | --- | --- | --- | --- | --- | --- | --- | --- | --- | --- |
| CS[C@H]1O[C@H]([C@H](NC(=O)[C@H]2NC[C@@H]3C[C@H](CC(C)C)CCO[C@H]32)C(C)C(F)(F)F)[C@H](O)[C@H](O)[C@H]1O (mixture of isomers) [FSA-09-04-081, (4S,5aS,8S,8aR)-4-Isobutyl-N-((1R)-3,3,3-trifluoro-2-methyl-1-((2R,3R,4S,5R,6R)-3,4,5-trihydroxy-6-(methylthio)tetrahydro-2H-pyran-2-yl)propyl)octahydro-2H-oxepino[2,3-c]pyrrole-8-carboxamide] | 8 (≈ 15.1 µM) | 0.25 (≈ 0.473 µM) | 32 (≈ 60.5 µM) | 32 (≈ 60.5 µM) | 0.125 (≈ 0.236 µM) | 0.125 (≈ 0.236 µM) | 0.125 (≈ 0.236 µM) | 2 (≈ 3.78 µM) | 0.125 (≈ 0.236 µM) | 2 (≈ 3.78 µM) |  |  |  |  |
| NCC[C@H](O)C(=O)N[C@@H]1C[C@H](N)[C@@H](O[C@H]2O[C@H](CN)[C@@H](O)[C@H](O)[C@H]2O)[C@H](O)[C@H]1O[C@H]1O[C@H](CO)[C@@H](O)[C@H](N)[C@H]1O [Amikacin] |  |  |  |  |  |  |  |  |  |  | 4 (≈ 6.83 µM) | 4 (≈ 6.83 µM) | 4 (≈ 6.83 µM) | 64 (≈ 109 µM) |
| CS[C@H]1O[C@H]([C@H](NC(=O)[C@H]2NC[C@@H]3C[C@H](CC(C)C)CCO[C@H]32)[C@@H](C)O)[C@H](O)[C@H](O)[C@H]1O [FSA-09-04-072, (4S,5aS,8S,8aR)-N-((1R,2R)-2-Hydroxy-1-((2R,3R,4S,5R,6R)-3,4,5-trihydroxy-6-(methylthio)tetrahydro-2H-pyran-2-yl)propyl)-4-isobutyloctahydro-2H-oxepino[2,3-c]pyrrole-8-carboxamide] | 32 (≈ 67.1 µM) | 0.5 (≈ 1.05 µM) | 16 (≈ 33.6 µM) | 16 (≈ 33.6 µM) | 0.5 (≈ 1.05 µM) | 0.5 (≈ 1.05 µM) | 0.25 (≈ 0.525 µM) | 2 (≈ 4.2 µM) | 1 (≈ 2.1 µM) | 1 (≈ 2.1 µM) |  |  |  |  |
| CS[C@H]1O[C@H]([C@H](NC(=O)[C@H]2NC[C@@H]3C[C@H](CC(C)C)CCO[C@H]32)[C@H](C)Sc2ccc(CCN(C)C)cc2)[C@H](O)[C@H](O)[C@H]1O [FSA-09-04-087, (4S,5aS,8S,8aR)-N-((1S,2S)-2-((4-(2-(Dimethylamino)ethyl)phenyl)thio)-1-((2R,3R,4S,5R,6R)-3,4,5-trihydroxy-6-(methylthio)tetrahydro-2H-pyran-2-yl)propyl)-4-isobutyloctahydro-2H-oxepino[2,3-c]pyrrole-8-carboxamide] | 8 (≈ 12.5 µM) | 4 (≈ 6.25 µM) | 16 (≈ 25 µM) | 16 (≈ 25 µM) | 0.5 (≈ 0.781 µM) | 0.5 (≈ 0.781 µM) | 0.5 (≈ 0.781 µM) | 1 (≈ 1.56 µM) | 1 (≈ 1.56 µM) | 1 (≈ 1.56 µM) |  |  |  |  |
| CS[C@H]1O[C@H]([C@H](NC(=O)[C@H]2NC[C@@H]3C[C@H](CC(C)C)CCO[C@H]32)[C@H](C)Sc2nnc(N)s2)[C@H](O)[C@H](O)[C@H]1O [FSA-09-04-094, (4S,5aS,8S,8aR)-N-((1S,2S)-2-((5-Amino-1,3,4-thiadiazol-2-yl)thio)-1-((2R,3R,4S,5R,6R)-3,4,5-trihydroxy-6-(methylthio)tetrahydro-2H-pyran-2-yl)propyl)-4-isobutyloctahydro-2H-oxepino[2,3-c]pyrrole-8-carboxamide] | 128 (≈ 216 µM) | 128 (≈ 216 µM) | > 128 | > 128 | 0.5 (≈ 0.845 µM) | 1 (≈ 1.69 µM) | 2 (≈ 3.38 µM) | 64 (≈ 108 µM) | 4 (≈ 6.76 µM) | 32 (≈ 54.1 µM) |  |  |  |  |
| CS[C@H]1O[C@H]([C@H](NC(=O)[C@H]2NC[C@@H]3C[C@H](CC(C)C)CCO[C@H]32)[C@H](C)Sc2nnc(N3CCNCC3)s2)[C@H](O)[C@H](O)[C@H]1O [FSA-09-05-011, (4S,5aS,8S,8aR)-4-Isobutyl-N-((1S,2S)-2-((5-(piperazin-1-yl)-1,3,4-thiadiazol-2-yl)thio)-1-((2R,3R,4S,5R,6R)-3,4,5-trihydroxy-6-(methylthio)tetrahydro-2H-pyran-2-yl)propyl)octahydro-2H-oxepino[2,3-c]pyrrole-8-carboxamide] | 64 (≈ 96.8 µM) | 32 (≈ 48.4 µM) | 32 (≈ 48.4 µM) | 64 (≈ 96.8 µM) | 1 (≈ 1.51 µM) | 1 (≈ 1.51 µM) | 2 (≈ 3.03 µM) | 8 (≈ 12.1 µM) | 4 (≈ 6.05 µM) | 2 (≈ 3.03 µM) |  |  |  |  |
| CS[C@H]1O[C@H]([C@H](NC(=O)[C@H]2NC[C@@H]3C[C@H](CC(C)C)CCO[C@H]32)[C@H](C)Sc2ccc(CN3CCOCC3)cc2)[C@H](O)[C@H](O)[C@H]1O [FSA-09-05-68, (4S,5aS,8S,8aR)-4-Isobutyl-N-((1S,2S)-2-((4-(morpholinomethyl)phenyl)thio)-1-((2R,3R,4S,5R,6R)-3,4,5-trihydroxy-6-(methylthio)tetrahydro-2H-pyran-2-yl)propyl)octahydro-2H-oxepino[2,3-c]pyrrole-8-carboxamide] | 8 (≈ 12 µM) | 4 (≈ 5.99 µM) | 32 (≈ 47.9 µM) | 32 (≈ 47.9 µM) | 0.125 (≈ 0.187 µM) | 0.25 (≈ 0.374 µM) | 1 (≈ 1.5 µM) | 2 (≈ 2.99 µM) | 2 (≈ 2.99 µM) | 2 (≈ 2.99 µM) |  |  |  |  |
| CS[C@H]1O[C@H]([C@H](NC(=O)[C@H]2NC[C@@H]3C[C@H](CC(C)C)CCO[C@H]32)[C@H](C)Sc2ccc(CO)cc2)[C@H](O)[C@H](O)[C@H]1O [FSA-09-05-069, (4S,5aS,8S,8aR)-N-((1S,2S)-2-((4-(Hydroxymethyl)phenyl)thio)-1-((2R,3R,4S,5R,6R)-3,4,5-trihydroxy-6-(methylthio)tetrahydro-2H-pyran-2-yl)propyl)-4-isobutyloctahydro-2H-oxepino[2,3-c]pyrrole-8-carboxamide] | 64 (≈ 107 µM) | 16 (≈ 26.7 µM) | 128 (≈ 214 µM) | 128 (≈ 214 µM) | 0.125 (≈ 0.209 µM) | 0.25 (≈ 0.417 µM) | 1 (≈ 1.67 µM) | 16 (≈ 26.7 µM) | 1 (≈ 1.67 µM) | 4 (≈ 6.68 µM) |  |  |  |  |
| CS[C@H]1O[C@H]([C@H](NC(=O)[C@H]2NC[C@@H]3C[C@H](CC(C)C)CCO[C@H]32)[C@H](C)Sc2ccc(-c3cccnc3)cc2)[C@H](O)[C@H](O)[C@H]1O [FSA-09-05-074, (4S,5aS,8S,8aR)-4-Isobutyl-N-((1S,2S)-2-((4-(pyridin-3-yl)phenyl)thio)-1-((2R,3R,4S,5R,6R)-3,4,5-trihydroxy-6-(methylthio)tetrahydro-2H-pyran-2-yl)propyl)octahydro-2H-oxepino[2,3-c]pyrrole-8-carboxamide] | 2 (≈ 3.1 µM) | 2 (≈ 3.1 µM) | 32 (≈ 49.5 µM) | 32 (≈ 49.5 µM) | 0.125 (≈ 0.194 µM) | 0.25 (≈ 0.387 µM) | 0.5 (≈ 0.774 µM) | 4 (≈ 6.19 µM) | 1 (≈ 1.55 µM) | 4 (≈ 6.19 µM) |  |  |  |  |
| CS[C@H]1O[C@H]([C@H](NC(=O)[C@H]2NC[C@@H]3C[C@H](CC(C)C)CCO[C@H]32)[C@H](C)Sc2ccc(CN3CCNCC3)cc2)[C@H](O)[C@H](O)[C@H]1O [FSA-09-05-076, (4S,5aS,8S,8aR)-4-Isobutyl-N-((1S,2S)-2-((4-(piperazin-1-ylmethyl)phenyl)thio)-1-((2R,3R,4S,5R,6R)-3,4,5-trihydroxy-6-(methylthio)tetrahydro-2H-pyran-2-yl)propyl)octahydro-2H-oxepino[2,3-c]pyrrole-8-carboxamide] | 128 (≈ 192 µM) | 16 (≈ 24 µM) | 128 (≈ 192 µM) | 16 (≈ 24 µM) | 1 (≈ 1.5 µM) | 0.25 (≈ 0.375 µM) | 4 (≈ 6 µM) | 16 (≈ 24 µM) | 8 (≈ 12 µM) | 8 (≈ 12 µM) |  |  |  |  |
